This passage reports AC50, IC50 and EC50 results from ChEMBL document CHEMBL1201862, “PubChem BioAssay data set” (2004).

By AC50 is commonly meant the midpoint of the concentration-response curve, whichever way the signal moves. The IC50 is the concentration needed to halve the response being measured. One may read the EC50 as the concentration needed to bring the measured effect to its halfway point.

The source made the active and inactive calls.

In test [1] the target is DNA repair protein RAD52 homolog (Homo sapiens, UniProt P43351). In kind it is functional, biochemical.
Sequence of DNA repair protein RAD52 homolog (P43351 whole entry): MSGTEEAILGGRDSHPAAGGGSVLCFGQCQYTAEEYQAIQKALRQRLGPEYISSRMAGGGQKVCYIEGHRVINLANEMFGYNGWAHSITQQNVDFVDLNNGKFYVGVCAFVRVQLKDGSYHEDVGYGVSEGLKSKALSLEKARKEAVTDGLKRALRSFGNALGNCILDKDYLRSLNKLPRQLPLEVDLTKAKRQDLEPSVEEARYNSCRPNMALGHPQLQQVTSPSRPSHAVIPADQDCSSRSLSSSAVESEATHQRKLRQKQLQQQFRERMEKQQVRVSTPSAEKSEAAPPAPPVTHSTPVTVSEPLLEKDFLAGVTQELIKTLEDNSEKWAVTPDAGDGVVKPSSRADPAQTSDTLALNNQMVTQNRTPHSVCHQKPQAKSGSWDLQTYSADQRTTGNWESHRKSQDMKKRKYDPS
Test [2] has as its target T1, DNA repair and recombination protein RAD54-like (Homo sapiens, UniProt Q92698).
T1 sequence (Q92698 whole entry): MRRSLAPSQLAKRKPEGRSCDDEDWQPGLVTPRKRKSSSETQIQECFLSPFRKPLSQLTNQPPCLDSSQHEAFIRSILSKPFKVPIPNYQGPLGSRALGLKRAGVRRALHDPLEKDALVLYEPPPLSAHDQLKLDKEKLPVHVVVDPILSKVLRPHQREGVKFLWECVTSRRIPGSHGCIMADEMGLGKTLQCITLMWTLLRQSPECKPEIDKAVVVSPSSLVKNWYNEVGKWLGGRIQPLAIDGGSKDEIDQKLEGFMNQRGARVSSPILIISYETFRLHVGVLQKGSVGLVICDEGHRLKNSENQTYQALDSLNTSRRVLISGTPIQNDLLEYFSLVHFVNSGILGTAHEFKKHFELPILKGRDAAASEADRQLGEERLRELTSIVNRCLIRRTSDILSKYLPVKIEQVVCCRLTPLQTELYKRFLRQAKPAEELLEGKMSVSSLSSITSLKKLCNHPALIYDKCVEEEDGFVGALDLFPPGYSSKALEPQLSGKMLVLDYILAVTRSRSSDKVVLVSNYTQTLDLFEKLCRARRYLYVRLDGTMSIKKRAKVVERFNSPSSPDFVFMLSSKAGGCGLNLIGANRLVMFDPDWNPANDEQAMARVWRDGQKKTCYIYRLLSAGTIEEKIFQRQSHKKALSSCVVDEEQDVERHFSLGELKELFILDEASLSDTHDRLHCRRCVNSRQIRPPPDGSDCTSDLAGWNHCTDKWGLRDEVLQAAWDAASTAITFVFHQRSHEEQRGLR
Briefly: RAD54 Holliday junction migration blockers – biochemical, fluorescence, cherry-picked samples, dose series, confirmation (AID 651657). In kind it is functional.

In test [3] the target is Beta-lactamase (Salmonella choleraesuis (strain SC-B67), UniProt Q5J463).
Sequence of Beta-lactamase (Salmonella choleraesuis (strain SC-B67), UniProt Q5J463) (Q5J463 whole entry): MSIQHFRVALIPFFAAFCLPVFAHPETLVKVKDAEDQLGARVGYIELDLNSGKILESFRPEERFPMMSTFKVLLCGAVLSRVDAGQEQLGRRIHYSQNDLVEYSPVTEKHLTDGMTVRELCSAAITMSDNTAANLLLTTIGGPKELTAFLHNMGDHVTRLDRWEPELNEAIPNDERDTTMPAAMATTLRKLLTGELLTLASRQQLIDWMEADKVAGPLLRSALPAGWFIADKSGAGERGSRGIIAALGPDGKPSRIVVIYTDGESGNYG
The target of test [4] is Troponin, cardiac muscle (Homo sapiens, UniProt P19429+P45379+P63316). Briefly: Fluorescence-based biochemical high throughput dose response assay for activators of the calcium sensitivity of cardiac Regulated Thin Filaments (RTF). [Related pubchem assays (depositor defined):AID493008, AID493018, AID504382, AID504383]. In kind it is protein-complex assay.
Test [5] addresses Beta-lactamase (Pseudomonas aeruginosa, UniProt Q79MP6).
Test [6] can be described thus: off-target signal loss in HeLa-CEM21 co-culture – HeLa F-luc CTL cells, cherry-picked, counter-screen for HIV-1 Env fusion inhibitor project, dose response (AID 652040).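 Note: potency for signal decrease marking cytotoxic or nonspecific inhibition.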 In kind it is functional, cell-based.
A short description of test [7]: blockers of HIV-1 envelope-mediated cell-cell fusion – cherry-pick, dose response (AID 652057). In kind it is functional, cell-based.
The nature of test [8]: blockers of HIV-1 ZM109 envelope-driven cell-cell fusion – HeLa effector, CEM target cells, luciferase, cherry-pick, dose response (AID 652058).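 Note: luciferase signal from HIV-1 Env mediated cell-cell fusion of effector and target cells.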 In kind it is functional, cell-based.
The test system of test [9] is HEK293. Briefly: cells. As to conditions: Homo sapiens.
Test [10] can be described thus: HIV-1 AD8 envelope cell-cell fusion blockers – cherry-pick, dose response (AID 652062).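 Note: luciferase signal from cell-cell fusion driven by HIV-1 clade B AD8 Env; potency is for inhibitors of fusion seen as a drop in luminescence.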 In kind it is functional, cell-based.
In test [11] the test system is HEK293. Briefly: cells. As to conditions: Homo sapiens. This is another data set of the same source.
Test [12] concerns the target T2, Scavenger receptor class B member 1 (Mus musculus, UniProt Q61009).
T2 sequence (Q61009 whole entry): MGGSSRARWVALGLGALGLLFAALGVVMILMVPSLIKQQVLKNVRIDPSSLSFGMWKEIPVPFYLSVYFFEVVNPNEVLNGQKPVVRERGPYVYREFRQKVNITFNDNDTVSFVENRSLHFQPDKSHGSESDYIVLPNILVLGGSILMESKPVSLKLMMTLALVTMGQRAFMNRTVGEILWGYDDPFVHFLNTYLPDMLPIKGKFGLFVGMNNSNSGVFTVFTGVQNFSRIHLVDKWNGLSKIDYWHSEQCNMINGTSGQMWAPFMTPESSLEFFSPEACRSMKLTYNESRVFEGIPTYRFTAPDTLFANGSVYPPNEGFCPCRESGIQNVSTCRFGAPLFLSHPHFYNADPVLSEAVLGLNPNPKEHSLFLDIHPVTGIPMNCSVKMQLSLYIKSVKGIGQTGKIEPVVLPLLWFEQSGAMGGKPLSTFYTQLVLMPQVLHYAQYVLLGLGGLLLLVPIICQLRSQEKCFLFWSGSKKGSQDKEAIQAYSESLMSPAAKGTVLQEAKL
Briefly: blockers of DiI-HDL lipid transfer via SR-BI – cell-based, ldlA[mSR-BI] CHO, DiI fluorescence, dry powder, set 10, dose response (AID 624029). Type of test: functional.

For test [13], the target named is Cytochrome P450 2D6 (Homo sapiens, UniProt P10635).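 Note: CYP2D6 member of a cytochrome P450 panel assay.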
Sequence of Cytochrome P450 2D6 (P10635 whole entry): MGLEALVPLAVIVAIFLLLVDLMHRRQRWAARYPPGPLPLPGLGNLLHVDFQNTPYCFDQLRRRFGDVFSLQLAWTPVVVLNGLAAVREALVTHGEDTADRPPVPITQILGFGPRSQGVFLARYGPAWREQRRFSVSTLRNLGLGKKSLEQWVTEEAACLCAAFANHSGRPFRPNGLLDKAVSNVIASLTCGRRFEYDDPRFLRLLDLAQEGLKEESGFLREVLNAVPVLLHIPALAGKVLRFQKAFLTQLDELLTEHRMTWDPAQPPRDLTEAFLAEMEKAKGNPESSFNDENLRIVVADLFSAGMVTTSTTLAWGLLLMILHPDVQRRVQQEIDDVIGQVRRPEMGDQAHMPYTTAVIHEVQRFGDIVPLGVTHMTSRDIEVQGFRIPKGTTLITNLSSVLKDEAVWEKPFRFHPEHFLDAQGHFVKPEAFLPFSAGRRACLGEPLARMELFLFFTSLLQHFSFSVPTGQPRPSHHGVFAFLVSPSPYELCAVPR
In test [14] the target is Luciferin 4-monooxygenase (Photinus pyralis, UniProt P08659). Briefly: inhibition of purified Photinus pyralis luciferase – biochemical, luminescence, dose response (AID 1891).
Sequence of Luciferin 4-monooxygenase (P08659 whole entry): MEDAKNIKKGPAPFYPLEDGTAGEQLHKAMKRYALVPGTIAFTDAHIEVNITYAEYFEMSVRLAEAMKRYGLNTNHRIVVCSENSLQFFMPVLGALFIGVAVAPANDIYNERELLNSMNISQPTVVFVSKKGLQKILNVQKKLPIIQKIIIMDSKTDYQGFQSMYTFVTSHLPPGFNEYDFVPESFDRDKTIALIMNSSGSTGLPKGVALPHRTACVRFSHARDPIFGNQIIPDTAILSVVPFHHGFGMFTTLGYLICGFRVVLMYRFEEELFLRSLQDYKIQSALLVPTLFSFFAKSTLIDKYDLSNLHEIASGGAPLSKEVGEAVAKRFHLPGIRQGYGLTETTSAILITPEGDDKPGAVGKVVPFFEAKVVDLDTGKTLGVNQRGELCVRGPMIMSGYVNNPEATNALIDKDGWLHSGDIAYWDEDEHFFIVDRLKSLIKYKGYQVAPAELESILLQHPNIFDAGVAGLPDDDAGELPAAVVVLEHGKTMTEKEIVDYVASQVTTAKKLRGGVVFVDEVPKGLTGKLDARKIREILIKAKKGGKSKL
Test [15] in a line: Luminescence Cell-Based Dose Confirmation HTS to Identify Inhibitors of Platelet Dense Granule Release. [Related pubchem assays: 1663 (Primary HTS), 1678 (Summary of Project)]. In kind it is functional.
For test [16], the target named is T3, Serine/threonine-protein phosphatase (Candida dubliniensis (strain CD36 / CBS 7987 / NCPF 3949 / NRRLY-17841) (Yeast), UniProt B9W6M3).
T3 sequence (B9W6M3 whole entry): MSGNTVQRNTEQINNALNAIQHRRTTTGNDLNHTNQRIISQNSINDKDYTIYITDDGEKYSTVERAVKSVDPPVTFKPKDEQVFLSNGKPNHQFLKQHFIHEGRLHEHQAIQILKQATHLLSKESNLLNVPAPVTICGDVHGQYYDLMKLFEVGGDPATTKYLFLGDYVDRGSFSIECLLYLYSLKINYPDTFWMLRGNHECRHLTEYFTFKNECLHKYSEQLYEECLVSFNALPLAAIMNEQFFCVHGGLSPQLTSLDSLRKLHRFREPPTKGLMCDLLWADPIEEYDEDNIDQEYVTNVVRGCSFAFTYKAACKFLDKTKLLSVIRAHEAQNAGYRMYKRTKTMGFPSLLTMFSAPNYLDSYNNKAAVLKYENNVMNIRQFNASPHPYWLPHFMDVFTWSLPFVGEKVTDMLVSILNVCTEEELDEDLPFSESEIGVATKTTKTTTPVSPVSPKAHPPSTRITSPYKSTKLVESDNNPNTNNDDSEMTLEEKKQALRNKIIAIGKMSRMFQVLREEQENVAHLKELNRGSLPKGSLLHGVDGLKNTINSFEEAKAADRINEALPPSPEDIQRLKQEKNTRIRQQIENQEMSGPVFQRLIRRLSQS
Briefly: blockers of CaCl2-induced CDRE-lacZ signaling – S. cerevisiae, luminescence, secondary, dose response (AID 2388).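 Note: yeast reporter cells carrying a calcineurin-responsive lacZ construct stimulated with calcium chloride; luminescent beta-galactosidase reporter signal in whole cells rather than isolated phosphatase activity; potency for inhibition where a drop in reporter signal means calcineurin blockade.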 Type of test: functional, cell-based.

The subject of test [17] is INS1. Briefly: INS-1E survival protection against cytokine death – cell-based, luminescence, retest, dose response (AID 449756).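 Note: cell death triggered by IL-1 beta plus TNF-alpha plus IFN-gamma mixture; protective hits raise ATP signal compared with cytokine alone wells.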 In kind it is functional. Particulars: Rattus norvegicus.
The target in test [18] is Photoreceptor-specific nuclear receptor (Homo sapiens, UniProt Q9Y5X4). Type of test: functional, cell-based.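 Note: CHO-S cells with Gal4-NCOR and VP16-NR2E3 two-hybrid luciferase reporter.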
Sequence of Photoreceptor-specific nuclear receptor (Q9Y5X4 whole entry, the tested form may be a part): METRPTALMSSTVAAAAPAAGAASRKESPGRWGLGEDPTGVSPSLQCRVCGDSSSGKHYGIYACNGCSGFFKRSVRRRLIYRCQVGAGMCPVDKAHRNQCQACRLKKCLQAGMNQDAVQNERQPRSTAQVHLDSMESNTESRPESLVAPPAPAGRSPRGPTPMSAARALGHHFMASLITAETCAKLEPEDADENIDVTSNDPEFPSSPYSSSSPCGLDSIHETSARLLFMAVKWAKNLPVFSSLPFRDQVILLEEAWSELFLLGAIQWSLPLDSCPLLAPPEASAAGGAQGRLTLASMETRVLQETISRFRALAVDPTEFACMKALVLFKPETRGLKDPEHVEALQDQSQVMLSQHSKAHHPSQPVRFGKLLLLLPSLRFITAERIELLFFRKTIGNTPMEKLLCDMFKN
Test [19] has as its target ATP-dependent molecular chaperone HSP82 (Candida albicans (strain WO-1) (Yeast), UniProt C4YTQ8). Briefly: steroid-induced GRE reporter decrease in yeast – S. cerevisiae, luminescence, Hsp90 inhibitor project, dose response (AID 2400).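 Note: beta-galactosidase luminescence from glucocorticoid response element reporter as proxy for Hsp90 function; inhibitor potency where signal loss means Hsp90 inhibition.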 Type of test: functional, cell-based.
A short description of test [20]: cells. In kind it is functional, cell-based.
The nature of test [21]: NIH-3T3 fibroblast cytotoxicity, dose response, cytotoxicity control, cell-based, fluorescence, Alamar Blue, secondary assay (AID 2327).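 Note: NIH-3T3 mouse fibroblasts cultured with fluconazole at 8 µg/mL.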 Type of test: functional. (In general: The colour change of resazurin is a common sign of viable cells or microbes.)
Test [22] is described as follows: fluconazole-exposed Candida albicans growth modulators – fluorescence, retest, confirmation (AID 2467). In kind it is functional, cell-based.
Test [23] in a line: cells. Type of test: functional, cell-based. This is another data set of the same source.
Test [24] in a line: Trypanosoma cruzi growth suppression in host cells – NIH3T3 host cells, beta-gal luminescence, confirmation (AID 2044).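 Note: intracellular parasites grown in NIH/3T3 mouse fibroblasts as host cells; luminescent beta-galactosidase reporter signal from transgenic T. cruzi replicating inside host cells; inhibitors lower the luminescence signal.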 In kind it is functional, cell-based.
A short description of test [25]: NIH3T3 cell viability loss – ATP luminescence, mouse fibroblasts, counter-screen, dose response (AID 2010).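 Note: cells exposed to compound for about 90 hours before reading.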 Type of test: functional, cell-based. On the technique in general: The purpose of a counterscreen is to sort out artefacts and off-target activity.
The test system of test [26] is Vero. Briefly: viability loss in Vero cells – cell-based, plate reader, cherry-pick samples, cytotoxicity control, dose response (AID 687020). Particulars: Chlorocebus sabaeus. In kind it is functional.

Sequence of ATP-dependent molecular chaperone HSP82 (C4YTQ8 whole entry): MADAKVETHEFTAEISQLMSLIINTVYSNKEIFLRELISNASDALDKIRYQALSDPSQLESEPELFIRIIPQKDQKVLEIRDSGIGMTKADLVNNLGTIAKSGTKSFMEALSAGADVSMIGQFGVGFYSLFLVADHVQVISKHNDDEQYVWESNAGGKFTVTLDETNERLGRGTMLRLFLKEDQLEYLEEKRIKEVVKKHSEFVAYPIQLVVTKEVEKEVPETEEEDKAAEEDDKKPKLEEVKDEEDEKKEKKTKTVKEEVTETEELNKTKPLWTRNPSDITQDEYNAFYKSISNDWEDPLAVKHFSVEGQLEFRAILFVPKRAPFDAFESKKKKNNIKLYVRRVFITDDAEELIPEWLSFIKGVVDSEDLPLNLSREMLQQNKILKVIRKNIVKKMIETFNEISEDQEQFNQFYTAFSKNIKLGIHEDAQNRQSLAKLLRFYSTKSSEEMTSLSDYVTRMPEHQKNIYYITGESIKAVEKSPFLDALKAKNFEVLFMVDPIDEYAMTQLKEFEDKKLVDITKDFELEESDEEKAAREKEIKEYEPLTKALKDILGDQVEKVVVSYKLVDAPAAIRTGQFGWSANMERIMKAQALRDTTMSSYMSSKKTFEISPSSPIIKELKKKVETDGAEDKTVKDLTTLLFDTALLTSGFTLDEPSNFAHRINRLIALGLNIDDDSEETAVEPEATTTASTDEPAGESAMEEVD
Sequence of Beta-lactamase (Pseudomonas aeruginosa, UniProt Q79MP6) (Q79MP6 whole entry, the tested form may be a part): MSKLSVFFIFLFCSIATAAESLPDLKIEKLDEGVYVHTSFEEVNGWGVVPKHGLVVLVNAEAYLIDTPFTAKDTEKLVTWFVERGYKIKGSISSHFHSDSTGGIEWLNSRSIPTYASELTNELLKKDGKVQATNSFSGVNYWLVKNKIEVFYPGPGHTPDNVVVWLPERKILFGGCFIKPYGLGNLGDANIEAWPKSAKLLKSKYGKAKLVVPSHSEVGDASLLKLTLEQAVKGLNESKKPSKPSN

Turning to `CN(C)CCCNc1nc2cc(-c3ccc(F)cc3)sc2c(=O)n1C`, the values for the half-maximal activity concentration (AC50) in [1] and in test [2] were 7.84 µM (active) and 33.8 µM (active), respectively.

For `COc1ccc(/C=C2/SC(c3ccc(C)cc3)=NC2=O)cc1OC`, the IC50 in [3] and in test [5] was > 59.6 µM (inactive) each time. Besides, the half-maximal effective concentration (EC50) in [4] was 0.742 µM (active).

Consider `COc1ccc(NC(=O)C2CCCN2S(=O)(=O)c2ccc3c(c2)CCC(=O)N3)cc1Cl` (stereo unspecified), for which the AC50 in test [6] is 14.8 µM (active); in test [7] it was 7.43 µM (active); in test [8], 3.18 µM (active); in [10], 17.3 µM (active). In addition, the EC50 in test [9] and in test [11] was > 59.6 µM (inactive) throughout.

In the case of `CC(C)NC(=O)Nc1ccc2c(c1)C(=O)N([C@H](C)CO)C[C@H](C)[C@H](CN(C)S(=O)(=O)c1ccc(Cl)cc1)O2`, the AC50 in [12] was 57.4 µM (active).

In the case of `Cc1ccc(N2C(=O)CC(c3ccsc3)C3=C2CC(C)(C)CC3=O)cc1` (stereo unspecified), the AC50 in test [13] was 39.8 µM (inconclusive); in test [6], 5.07 µM (active); in test [7], 3.24 µM (active); in test [8], 3.55 µM (active); in test [10] it was 18.9 µM (active). Further, the EC50 in test [14] and in [15] was > 112 µM (not active) each time.

Turning to `CC(=O)NC(c1cccs1)c1cc([N+](=O)[O-])c2cccnc2c1O` (stereo unspecified), the EC50 in test [16] was > 180 µM (inactive); in test [19] it was > 150 µM (inactive); in test [20] it was > 350 µM (not active); in test [21] it was 46.7 µM (inconclusive); in [22] it was 0.757 µM (active); in test [23], 51.5 µM (active). For the same molecule, in test [17], the AC50 was 4.94 µM (active). Also, in test [18], the concentration for half-maximal inhibition (IC50) is 4.71 µM (active).

`COc1ccc2ccccc2c1-c1sc(Nc2ccccc2)n[n+]1-c1ccc(F)cc1`: the EC50 in test [24] was 0.707 µM (active); in test [25] it was > 30 µM (not active). Further, the AC50 in test [26] was 31.6 µM (active).

Turning to `CC(C)C[C@@H](COc1ccccc1)N1CCN(Cc2ccccc2)CCC1=O`, in test [26], the AC50 was 33.5 µM (active).
